Source: patent US6358885B1, “Substituted phenylheterocyclic herbicides” (Mississippi State University, priority 1992, dated 2002)

Tests used:
[1] = test system: wild buckwheat; assay: Test C preemergence/postemergence greenhouse plant response rating 0 to 100; type: in vivo, Polygonum convolvulus; settings: POSTEMERGENCE; for Plant response rating, Wild buckwheat: 0 to 100 scale
Summary of the method: (§1)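 Compounds in non-phytotoxic solvent applied preemergence to sandy loam one day after planting, postemergence at the 1–4 leaf stage, or to ~2.5 cm floodwater over silt loam.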

[2] = test system: barnyardgrass; assay: Test C flood test plant response rating 0 to 100; type: in vivo, Echinochloa crus-galli; settings: for Plant response rating (0 to 100), Barnyardgrass: under POSTEMERGENCE head (flood test species); for Plant response rating, Barnyardgrass: flood test species listed under POSTEMERGENCE, 0 to 100 scale
Summary of the method: as §1

[3] = test system: wheat; assay: Test B preemergence/postemergence greenhouse plant response rating 0 to 10; type: in vivo, Triticum aestivum; settings: 0 to 10 scale
Summary of the method: (§2)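 Test chemicals, dissolved in a non-phytotoxic solvent, were applied to soil at planting and, at the same time, over foliage of seedlings at the one to four leaf stage.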

[4] = test system: wild oat; assay: as above; type: in vivo, Avena fatua; settings: 0 to 10 scale
Summary of the method: as §2

[5] = test system: duck salad; assay: Test C flood test plant response rating 0 to 100; type: in vivo, Heteranthera limosa; settings: for Plant response rating (0 to 100), Duck salad: under POSTEMERGENCE head (flood test species); for Plant response rating Duck salad: flood test species listed under POSTEMERGENCE, 0 to 100 scale
Summary of the method: as §1

[6] = test system: purple nutsedge; assay: Test B preemergence/postemergence greenhouse plant response rating 0 to 10; type: in vivo, Cyperus rotundus; settings: 0 to 10 scale
Summary of the method: as §2

[7] = test system: crabgrass; assay: as above; type: in vivo, Digitaria spp.; settings: 0 to 10 scale
Summary of the method: as §2

[8] = test system: velvetleaf; assay: Test C preemergence/postemergence greenhouse plant response rating 0 to 100; type: in vivo, Abutilon theophrasti; settings: POSTEMERGENCE; for Plant response rating, Velvetleaf: 0 to 100 scale
Summary of the method: as §1

[9] = test system: rice; assay: Test B preemergence/postemergence greenhouse plant response rating 0 to 10; type: in vivo, Oryza sativa; settings: 0 to 10 scale
Summary of the method: as §2

[10] = test system: cotton; assay: Test C preemergence/postemergence greenhouse plant response rating 0 to 100; type: in vivo, Gossypium hirsutum; settings: POSTEMERGENCE; for Plant response rating, Cotton: 0 to 100 scale
Summary of the method: as §1

[11] = test system: sugar beet; assay: Test B preemergence/postemergence greenhouse plant response rating 0 to 10; type: in vivo, Beta vulgaris; settings: 0 to 10 scale
Summary of the method: as §2

[12] = test system: pigweed; assay: Test C preemergence/postemergence greenhouse plant response rating 0 to 100; type: in vivo, Amaranthusretroflexus; settings: POSTEMERGENCE; for Plant response rating Pigweed: 0 to 100 scale
Summary of the method: as §1

[13] = test system: corn; assay: Test B preemergence/postemergence greenhouse plant response rating 0 to 10; type: in vivo, Zea mays; settings: 0 to 10 scale
Summary of the method: as §2

[14] = test system: cotton; assay: as above; type: in vivo, Gossypium hirsutum; settings: 0 to 10 scale
Summary of the method: as §2

[15] = test system: sorghum; assay: as above; type: in vivo, Sorghum bicolor; settings: 0 to 10 scale
Summary of the method: as §2

[16] = test system: wheat; assay: Test C preemergence/postemergence greenhouse plant response rating 0 to 100; type: in vivo, Triticum aestivum; settings: POSTEMERGENCE; for Plant response rating, Wheat: 0 to 100 scale
Summary of the method: as §1

[17] = test system: blackgrass; assay: Test B preemergence/postemergence greenhouse plant response rating 0 to 10; type: in vivo, Alopecurus myosuroides; settings: 0 to 10 scale
Summary of the method: as §2

[18] = test system: lambsquarters; assay: Test C preemergence/postemergence greenhouse plant response rating 0 to 100; type: in vivo, Chenopodium album; settings: POSTEMERGENCE; for Plant response rating Lambsquarters: 0 to 100 scale
Summary of the method: as §1

## CC(C)OC(=O)COc1cc(-c2nn3c(c2Cl)CCCC3)c(F)cc1Cl [Compound 39]
[1]; 62 g/ha
  Plant response rating, Wild buckwheat: 90
[1]; 125 g/ha
  Plant response rating, Wild buckwheat: 100
[1]; Rate 31 g/ha
  Plant response rating (0 to 100), Wild buckwheat: 70
[2]; Rate 16 g/ha
  Plant response rating (0 to 100), Barnyardgrass: 50
[2]; Rate 31 g/ha
  Plant response rating (0 to 100), Barnyardgrass: 80
[2]; 62 g/ha
  Plant response rating, Barnyardgrass: 90
[2]; 125 g/ha
  Plant response rating, Barnyardgrass: 95
[3]; POSTEMERGENCE, Rate 50 g/ha
  Plant response rating, Wheat: 4
[3]; PREEMERGENCE, Rate 50 g/ha
  Plant response rating, Wheat: 0
[3]; Rate 200 g/ha, POSTEMERGENCE
  Plant response rating, Wheat: 5
[3]; Rate 200 g/ha, PREEMERGENCE
  Plant response rating, Wheat: 0
[4]; POSTEMERGENCE, Rate 50 g/ha
  Plant response rating, Wild oat: 3
[4]; PREEMERGENCE, Rate 50 g/ha
  Plant response rating, Wild oat: 0
[4]; Rate 200 g/ha, POSTEMERGENCE
  Plant response rating, Wild oat: 3
[5]; Rate 16 g/ha
  Plant response rating (0 to 100), Duck salad: 0
[5]; Rate 31 g/ha
  Plant response rating (0 to 100), Duck salad: 0
[5]; 62 g/ha
  Plant response rating Duck salad: 0
[5]; 125 g/ha
  Plant response rating Duck salad: 0
[6]; POSTEMERGENCE, Rate 50 g/ha
  Plant response rating, Nutsedge: 5
[6]; PREEMERGENCE, Rate 50 g/ha
  Plant response rating, Nutsedge: 0
[6]; Rate 200 g/ha, POSTEMERGENCE
  Plant response rating, Nutsedge: 4
[6]; Rate 200 g/ha, PREEMERGENCE
  Plant response rating, Nutsedge: 0
[7]; POSTEMERGENCE, Rate 50 g/ha
  Plant response rating, Crabgrass: 5
[7]; POSTEMERGENCE, Rate 200 g/ha
  Plant response rating, Crabgrass: 4
[7]; PREEMERGENCE, Rate 50 g/ha
  Plant response rating, Crabgrass: 0
[7]; Rate 200 g/ha, PREEMERGENCE
  Plant response rating, Crabgrass: 2
[8]; 62 g/ha
  Plant response rating, Velvetleaf: 100
[8]; 125 g/ha
  Plant response rating, Velvetleaf: 100
[8]; Rate 16 g/ha
  Plant response rating (0 to 100), Velvetleaf: 100
[8]; Rate 31 g/ha
  Plant response rating (0 to 100), Velvetleaf: 100
[9]; POSTEMERGENCE, Rate 50 g/ha
  Plant response rating, Rice: 4
[9]; PREEMERGENCE, Rate 50 g/ha
  Plant response rating, Rice: 0
[9]; Rate 200 g/ha, POSTEMERGENCE
  Plant response rating, Rice: 6
[9]; Rate 200 g/ha, PREEMERGENCE
  Plant response rating, Rice: 0
[10]; 62 g/ha
  Plant response rating, Cotton: 100
[10]; 125 g/ha
  Plant response rating, Cotton: 100
[10]; Rate 16 g/ha
  Plant response rating (0 to 100), Cotton: 100
[10]; Rate 31 g/ha
  Plant response rating (0 to 100), Cotton: 100
[11]; POSTEMERGENCE, Rate 50 g/ha
  Plant response rating, Sugar beet: 10
[11]; PREEMERGENCE, Rate 50 g/ha
  Plant response rating, Sugar beet: 8
[11]; Rate 200 g/ha, POSTEMERGENCE
  Plant response rating, Sugar beet: 10
[11]; Rate 200 g/ha, PREEMERGENCE
  Plant response rating, Sugar beet: 10
[12]; 62 g/ha
  Plant response rating Pigweed: 100
[12]; 125 g/ha
  Plant response rating Pigweed: 100
[12]; Rate 16 g/ha
  Plant response rating (0 to 100), Pigweed: 90
[12]; Rate 31 g/ha
  Plant response rating (0 to 100), Pigweed: 100
[13]; POSTEMERGENCE, Rate 50 g/ha
  Plant response rating, Corn: 5
[13]; POSTEMERGENCE, Rate 200 g/ha
  Plant response rating, Corn: 5
[13]; PREEMERGENCE, Rate 50 g/ha
  Plant response rating, Corn: 0
[13]; Rate 200 g/ha, PREEMERGENCE
  Plant response rating, Corn: 0
[14]; POSTEMERGENCE, Rate 50 g/ha
  Plant response rating, Cotton: 10
[14]; POSTEMERGENCE, Rate 200 g/ha
  Plant response rating, Cotton: 10
[14]; PREEMERGENCE, Rate 50 g/ha
  Plant response rating, Cotton: 0
[14]; Rate 200 g/ha, PREEMERGENCE
  Plant response rating, Cotton: 0
[15]; POSTEMERGENCE, Rate 50 g/ha
  Plant response rating, Sorghum: 5
[15]; PREEMERGENCE, Rate 50 g/ha
  Plant response rating, Sorghum: 0
[15]; Rate 200 g/ha, POSTEMERGENCE
  Plant response rating, Sorghum: 5
[15]; Rate 200 g/ha, PREEMERGENCE
  Plant response rating, Sorghum: 0
[16]; 62 g/ha
  Plant response rating, Wheat: 10
[16]; 125 g/ha
  Plant response rating, Wheat: 20
[16]; Rate 16 g/ha
  Plant response rating (0 to 100), Wheat: 10
[16]; Rate 31 g/ha
  Plant response rating (0 to 100), Wheat: 10
[17]; POSTEMERGENCE, Rate 50 g/ha
  Plant response rating, Blackgrass: 4
[17]; POSTEMERGENCE, Rate 200 g/ha
  Plant response rating, Blackgrass: 4
[17]; PREEMERGENCE, Rate 50 g/ha
  Plant response rating, Blackgrass: 0
[17]; Rate 200 g/ha, PREEMERGENCE
  Plant response rating, Blackgrass: 2
[18]; 62 g/ha
  Plant response rating Lambsquarters: 100
[18]; 125 g/ha
  Plant response rating Lambsquarters: 100
[18]; Rate 16 g/ha
  Plant response rating (0 to 100), Lambsquarters: 70
[18]; Rate 31 g/ha
  Plant response rating (0 to 100), Lambsquarters: 100
